Experiments:
[1] = tested on: angiotensin I induced pressor response (ACE); test: inhibition of the angiotensin I induced pressor response in normotensive rats; format: in vivo, rat; conditions: 11.8 mg/kg p.o., conscious normotensive rats
Procedure: The in vivo test for i.v. administered compounds is performed with male, normotensive rats, which are conscious. A femoral artery and femoral vein are cannulated respectively for direct blood pressure measurement on i.v. administration of angiotensin I and i.v. or p.o. administration of a compound of this invention. After the basal blood pressure is stabilized, pressor responses to 3 or 4 challenges of 300 ng/kg angiotensin I i.v., at 15-minute intervals, are obtained. Such pressure responses are usually again obtained at 15, 30, 60 and 90 minutes, and then every hour up to 6 hours after i.v. or p.o. administration of the compound to be tested, and compared with the initial responses. Any observed decrease of said pressor response is an indication of ACE inhibition.

[2] = tested on: spontaneously hypertensive rat (SHR); test: anti-hypertensive activity in the spontaneously hypertensive rat (SHR); format: in vivo; conditions: conscious SHR, once daily administration of 11.8 mg/kg p.o.
From the text: The anti-hypertensive activity can be determined, e.g., in the spontaneously hypertensive rat (SHR) and the DOCA-salt hypertensive rat, e.g., according to Bazil et al., J. Cardiovasc. Pharmacol., Vol. 22, pp. 897–905 (1993) and Trapani et al., J. Cardiovasc. Pharmacol., Vol. 14, pp. 419–424 (1989), respectively.

[3] = tested on: plasma ANF concentration (NEP inhibition); test: effect on rat plasma ANF concentration; format: in vivo; conditions: 11.8 mg/kg p.o., rats infused with ANF 450 ng/kg/min i.v.
Procedure: The effect of the compounds of the invention on rat plasma ANF concentration can be determined as follows:
Male Sprague-Dawley rats (275–390 g) are anesthetized with ketamine (150 mg/kg)/acepromazine (10%) and instrumented with catheters in the femoral artery and vein to obtain blood samples and infuse ANF, respectively. The rats are tethered with a swivel system and are allowed to recover for 24 hours before being studied in the conscious, unrestrained state.
In the assay, plasma ANF levels are determined in the presence and absence of NEP inhibition. On the day of study, all rats are infused continuously with ANF at 450 ng/kg/min. i.v. for the entire 5 hours of the experiment. Sixty minutes after beginning the infusion, blood samples for baseline ANF measurements are obtained (time 0) and the rats are then randomly divided into groups treated with the test compound or vehicle. Additional blood samples are taken 30, 60, 120, 180 and 240 minutes after administration of the test compound.
Plasma ANF concentrations are determined by a specific radioimmunoassay. […] The supernatant is decanted and the pellets counted in a gamma counter. […] Plasma ANF levels are expressed as a percent of those measured in vehicle-treated animals which received ANF alone (450 ng/kg/min. i.v.)

CCOC(=O)[C@H](COCc1ccccc1)NC(=O)C(C)(C)NC(=O)[C@@H](SC(C)=O)C(C)C [Example 1(a), N-[2-[(S)-2-Acetylthio-3-methylbutanoylamino]-2-methylpropionyl]-O-benzyl-L-serine ethyl ester]
duration of inhibition of the angiotensin I induced pressor response [1]: 6 h
effect on mean arterial pressure [2]: reduces mean arterial pressure
increase of plasma ANF levels [3]: about 70%
